The values that follow come from article PMC6639268 (Journal of Virology, 2019).

The subject of one series is EBOV-pseudotyped virus. It is filed as cell-based, Zaire ebolavirus.
The subject of a further series is 293T cells. To be noted: for Cytotoxicity in single-concentration screen: 25 μM; for CC50: human.
The test system of series [1] is EBOV trVLP.
In series [2] the test system is EBOV (HIV-1/EBOV-GP) pseudotyped virus. To be noted: for IC50: read-out: IC50, Pseudotyped (no detergent).
Series [3] can be described thus: in vitro. To be noted: human.
The subject of series [4] is EBOV (HIV-1/EBOV-GP) pseudotyped virus. The series is described as follows: microbe, parasite or virus in culture. To be noted: Zaire ebolavirus, HEK-293T.
Series [5] concerns EBOV trVLP. Nature of the series: microbe, parasite or virus in culture. To be noted: Zaire ebolavirus, HEK-293T, read-out: IC50, trVLP.
Series [6] can be described thus: in vitro. To be noted: human, CC50, Pseudotyped.
For series [7], the system named is steroidogenic acute regulatory protein. To be noted: cited from earlier work.
The test system of series [8] is VSV (HIV-1/VSV-G) pseudotyped virus. The format is cell-based, vesicular stomatitis virus.
Setting [9] is: read-out: IC50, Pseudotyped (no detergent).

The structures appear in SMILES notation. Read-outs that look alike come from different tables or passages of the source.

For orientation: IC50 means the concentration that gives 50% inhibition.

On to `CCOC(=O)[C@H]1O[C@@H]1C(=O)N[C@@H](CC(C)C)C(=O)NCCC(C)C` [Compound E64d, E64d], for which the “Time point up to which maximum inhibition occurred” value in the series on EBOV-pseudotyped virus is no more than 80 min.

Regarding `Cc1ccc(C(=O)N/C(=C/c2ccc(-c3ccc(Br)cc3)o2)C(=O)NCCCN(C)C)cc1` [Compound I01], the “Cytotoxicity in single-concentration screen” value in the series on 293T cells is recorded as “most cytotoxic”. Further, the figures for the CC50 with 293T cells, in “in vitro [3]” and in the series “in vitro [6]” were 14.6 ± 5.86 µM, 9.72 ± 3.23 µM and 11 to 15 µM, respectively. Also, the “SI (CC50/IC50), trVLP” value with EBOV trVLP [1] is 8.8. Besides, the “Normalized luciferase signal (infectivity signal per cell as a fraction of the maximum)” value in [2] is “most activity”. In addition, the “SI (CC50/IC50), Pseudotyped” value in series [2] is recorded as 8.2. The IC50 in series [4] (read-out: IC50 with Tween 80) stood at 2.48 ± 1.35 µM; with EBOV trVLP [5], 1.1 ± 0.99 µM. Further, the “Activity on steroidogenic acute regulatory protein” value in series [7] is reported as “nonspecific inhibitor”.

Consider `COc1ccc(CN2CCOc3cc(O[C@H]4CCCN(C)C4)cc(-c4ccc(C)s4)c3C2)c(O)c1` [Compound I49], for which the “Cytotoxicity in single-concentration screen” value in the series with 293T cells was “most cytotoxic”. In addition, the CC50 with 293T cells is 11 ± 6.46 µM; in “in vitro [6]” it was 11 to 15 µM. Further, the “Normalized luciferase signal (infectivity signal per cell as a fraction of the maximum)” value in series [2] was “most activity”. In series [2], the “SI (CC50/IC50), Pseudotyped” value was determined as 3.8. For the same compound, the IC50 is 2.91 ± 0.63 µM in [2], less than 5 µM in series [4] (setting [9]), 3.12 ± 0.68 µM in series [4] (read-out: IC50 with Tween 80) and 2.67 ± 1.49 µM in the series with EBOV trVLP [5]. Besides, in [8], the “Inhibitory activity against VSV-G-pseudotyped virus entry” value (“Inhibitory activity” below) was “least average inhibitory activity against VSV-G”.

As for `CN(Cc1cccc(OCCN2CCN(S(=O)(=O)C3CCCCC3Cl)CC2)c1)CC1CCC(=O)N1` (stereo not drawn) [Compound I53], in the series with EBOV trVLP [1], the “SI (CC50/IC50), trVLP” value was found to be 3.5. Further, the “SI (CC50/IC50), Pseudotyped” value in series [2] came out at 3.0. Further, the results for the CC50 in the series “in vitro [3]” and in the series “in vitro [6]” were 47.5 ± 31.8 µM and 110 ± 58 µM, respectively. Besides, the IC50 is 36.7 µM in series [4] (setting [9]), 35.3 µM in [4] (read-out: IC50 with Tween 80) and 13.6 ± 12.2 µM in the series on EBOV trVLP [5].

For the compound `CCOc1ccc([C@@H](O)Cn2c(=N)n(CCN3CCCCC3)c3ccccc32)cc1` [Compound S03], in the series on EBOV trVLP [1], the “SI (CC50/IC50), trVLP” value came to 14.3. The IC50 is 5.79 ± 6.7 µM in [2], less than 10 µM in series [4] (setting [9]), 5.21 µM in [4] (read-out: IC50 with Tween 80) and 4.04 µM with EBOV trVLP [5]. In addition, the CC50 is 57.6 ± 24.2 µM in “in vitro [3]” and 80 ± 45.5 µM in “in vitro [6]”.

With `COc1ccc(CNCc2cc(F)cc(F)c2)cc1OC[C@H](O)CN1CCN(C)CC1` [Compound S29], in the series on EBOV trVLP [1], the “SI (CC50/IC50), trVLP” value is 2.9. Further, the IC50 in the series on EBOV trVLP [1] (read-out: IC50, trVLP) is 26.3 ± 17.1 µM; in series [2], 25.7 ± 9 µM; in series [4] (setting [9]), roughly 26 µM; in [4] (read-out: IC50 with Tween 80), 5.03 ± 3.62 µM; in the series on EBOV trVLP [5] it was greater than 20 µM. Moreover, in series [2], the “SI (CC50/IC50), Pseudotyped” value is given as 4.4. Further, in series [8], the “Inhibitory activity” value is given as “least average inhibitory activity against VSV-G”. The CC50 in “in vitro [3]” is 75.1 ± 24.4 µM; in the series “in vitro [6]”, 113 ± 82.2 µM.

With `CN(C)[C@@H]1CCN(CC(c2ccccc2)c2ccccc2)C[C@@H]1CCC(=O)NCc1ccc2c(c1)OCO2` [Compound S31], the “SI (CC50/IC50), trVLP” value with EBOV trVLP [1] worked out at 11.1. Also, the “SI (CC50/IC50), Pseudotyped” value in series [2] came out at 8.9. Also, the half-maximal inhibitory concentration (IC50) is 4.77 µM in [2], less than 5 µM in [4] (setting [9]), 4.68 ± 0.36 µM in [4] (read-out: IC50 with Tween 80) and 2.41 µM with EBOV trVLP [5]. Moreover, in series [8], the “Inhibitory activity” value is on record as “least average inhibitory activity against VSV-G”. Moreover, the figures for the CC50 in the series “in vitro [3]” and in the series “in vitro [6]” were 26.7 µM and 42.4 ± 15.4 µM, respectively.

Consider `CC(C)N[C@H]1C[C@@H](C(=O)CN2CCN(c3cccc(C(F)(F)F)c3)CC2)N(Cc2ccccc2)C1` [Compound S33], for which the “SI (CC50/IC50), trVLP” value with EBOV trVLP [1] was determined as 5.7. For the same compound, in series [2], the “SI (CC50/IC50), Pseudotyped” value amounted to 5.0. Moreover, the IC50 in series [2] was 5.85 ± 5.2 µM; in [4] (setting [9]), less than 10 µM; in series [4] (read-out: IC50 with Tween 80), 8.12 ± 2.37 µM; in the series on EBOV trVLP [5], 3.06 µM. Moreover, the CC50 was 17.5 µM in the series “in vitro [3]” and 29 ± 12.4 µM in “in vitro [6]”.

`COc1ccc(OC)c(CN2CCC[C@@H](c3ccnc(SCCN4CCCC4)n3)C2)c1` [Compound S36]: the “SI (CC50/IC50), trVLP” value with EBOV trVLP [1] came to 5.2. Further, the “SI (CC50/IC50), Pseudotyped” value in [2] turned out to be 10.6. Also, the 50% inhibitory concentration (IC50) was 6.29 ± 1.55 µM in series [2], less than 10 µM in [4] (setting [9]), 4.83 ± 1.11 µM in series [4] (read-out: IC50 with Tween 80) and 3.19 µM in the series on EBOV trVLP [5]. The CC50 in “in vitro [3]” is 16.5 µM; in the series “in vitro [6]”, 66.9 ± 33.3 µM.

On to `CCN1CCC[C@@H]1CN(CC1CCN(COC)CC1)C(=O)CCc1ccc(F)cc1` [Compound S42], for which the “Impact on cell viability (cytotoxicity curves)” value in the series with 293T cells is “minimal impact on cell viability”. The “SI (CC50/IC50), trVLP” value with EBOV trVLP [1] worked out at 11.2. In “in vitro [3]”, this compound yielded a CC50 of 124 ± 71.2 µM. For the same compound, the IC50 worked out at 11.6 ± 9.95 µM in series [4] (setting [9]), 36.5 ± 16.6 µM in series [4] (read-out: IC50 with Tween 80) and 11.1 ± 12.9 µM with EBOV trVLP [5].

Turning to `CNC1CCN(c2nc3cc(OC)ccc3cc2CNCCc2ccc(OC)cc2)CC1` [Compound S49], the “SI (CC50/IC50), trVLP” value with EBOV trVLP [1] was 5.9. Also, the IC50 in series [2] was 5.06 µM; in series [4] (setting [9]), less than 10 µM; in series [4] (read-out: IC50 with Tween 80), 17.8 ± 10.6 µM; in the series on EBOV trVLP [5], 3.81 ± 3.16 µM. Moreover, the values for the CC50 in the series “in vitro [3]” and in “in vitro [6]” were 22.4 µM and 66.6 ± 34 µM, respectively.

As for `CN1CCCC(CNC(=O)c2cc(NCc3ccccc3F)cc(S(=O)(=O)CNC(C)(C)C)c2)C1` (stereo not drawn) [Compound S58], the “Impact on cell viability (cytotoxicity curves)” value in the series with 293T cells is listed as “minimal impact on cell viability”. For the same compound, the “SI (CC50/IC50), trVLP” value in the series on EBOV trVLP [1] came out at 25.8. In addition, the “Inhibitory activity” value in series [8] is “least average inhibitory activity against VSV-G”. In the series “in vitro [3]”, the CC50 came out at 105 ± 57.1 µM. The IC50 was found to be 19.5 ± 18.9 µM in series [4] (setting [9]), 40.5 ± 24.4 µM in series [4] (read-out: IC50 with Tween 80) and 4.08 ± 0.88 µM in the series on EBOV trVLP [5].
